ChEMBL document CHEMBL3120156, “Discovery and development of simeprevir (TMC435), a HCV NS3/4A protease inhibitor” (J Med Chem, 2014)

Tests used:
[1] = Inhibition of Hepatitis C virus genotype 1a full-length NS3/4A protease; design: species or system Hepatitis C virus subtype 1a
[2] = tested on: Hepatitis C virus; assay: Antiviral activity against Hepatitis C virus genotype 1b infected in Huh7-clone ET Rep cells assessed as inhibition of HCV replication by luciferase assay; format: functional, organism-based, Hepacivirus hominis
[3] = tested on: Hepatitis C virus; assay: Antiviral activity against Hepatitis C virus genotype 1 infected in human patient assessed as log10 reduction of viral RNA level administered as oral dose measured after 2 days; format: functional, Hepacivirus hominis
[4] = Apparent permeability of the compound from apical to basolateral side of human Caco2 cells; format: ADME, cell-based; details: Caco-2
[5] = Intrinsic clearance in human liver microsomes; format: ADME; details: read-out: CLH
[6] = Volume of distribution at steady state in Sprague-Dawley rat at 2 mg/kg, iv administered as single dose with 20% Hydroxypropyl-beta-cyclodextrine; format: ADME, organism-based; design: dose 2 mg/kg, route intravenous; details: in vivo, read-out: Vdss
[7] = Inhibition of Hepatitis C virus genotype 1b NS3/4A protease; design: species or system Hepatitis C virus subtype 1b
[8] = tested on: Hepatitis C virus; assay: Antiviral activity against Hepatitis C virus infected in po dosed patient assessed as log10 reduction of HCV RNA level administered qd for 5 days; format: functional, Hepacivirus hominis
[9] = tested on: PBMC; assay: Cytostatic activity against staphylococcal enterotoxin B-stimulated human PBMC assessed as decrease in cell proliferation after 7 hrs by [3H]thymidine incorporation assay; format: cell-based; details: read-out: CS50 (the source's name)
[10] = Cytotoxicity against staphylococcal enterotoxin B-stimulated human PBMC assessed as decrease in cell viability after 72 hrs by WST-1 assay; format: cell-based
[11] = Protein binding in plasma (unknown origin); format: ADME, cell-free; details: read-out: PPB
[12] = Ratio of drug level in liver to plasma in Sprague-Dawley rat at 10 mg/kg, po administered with 50% PEG400 containing 2.5% of Vitamin E-TPGS measured after 6 hrs; format: ADME, organism-based; design: dose 10 mg/kg, route oral; details: liver and plasma
[13] = Half life in Sprague-Dawley rat at 10 mg/kg, po administered with 50% PEG400 containing 2.5% of Vitamin E-TPGS; format: ADME, organism-based; design: dose 10 mg/kg, route oral; details: in vivo
[14] = Tmax in Sprague-Dawley rat at 10 mg/kg, po administered with 50% PEG400 containing 2.5% of Vitamin E-TPGS; format: ADME, organism-based; design: dose 10 mg/kg, route oral; details: in vivo
[15] = AUC in Sprague-Dawley rat at 10 mg/kg, po administered with 50% PEG400 containing 2.5% of Vitamin E-TPGS; format: ADME, organism-based; design: dose 10 mg/kg, route oral; details: plasma
[16] = Ratio of drug level in liver to plasma in Sprague-Dawley rat at 2 mg/kg, iv administered as single dose with 20% Hydroxypropyl-beta-cyclodextrine measured after 6 hrs; format: ADME, organism-based; design: dose 2 mg/kg, route intravenous; details: liver and plasma
[17] = Drug metabolism in human liver microsomes at 5 uM at 37 degC after 15 mins; format: ADME; details: read-out: Drug metabolism
[18] = tested on: Hepatitis C virus; assay: Antiviral activity against Hepatitis C virus genotype 1a; format: functional, organism-based, Hepacivirus hominis; details: subtype 1a
[19] = Oral bioavailability in Sprague-Dawley rat at 10 mg/kg administered with 50% PEG400 containing 2.5% of Vitamin E-TPGS; format: ADME, organism-based; details: in vivo
[20] = Cmax in Sprague-Dawley rat at 10 mg/kg, po administered with 50% PEG400 containing 2.5% of Vitamin E-TPGS; format: ADME, organism-based; design: dose 10 mg/kg, route oral; details: in vivo
[21] = Clearance in Sprague-Dawley rat at 2 mg/kg, iv administered as single dose with 20% Hydroxypropyl-beta-cyclodextrine; format: ADME, organism-based; design: dose 2 mg/kg, route intravenous; details: in vivo
[22] = Metabolic stability in rat bile assessed as unchanged drug level at 1 mg/kg, iv after 1 hr; format: ADME, organism-based; design: dose 1 mg/kg, route intravenous; details: read-out: Stability
[23] = Plasma clearance in rat; format: ADME, organism-based
[24] = Oral bioavailability in rat; format: ADME, organism-based; details: in vivo

Row | Compound | Ki [1] [nM] | EC50 [2] [nM] | also measured
1 | H-DDIVPC-OH | 71000 |  | 
2 | COc1ccc2c(O[C@@H]3C[C@H]4C(=O)N[C@]5(C(=O)O)C[C@H]5/C=C\CCCCN(C(=O)OC(C)(C)C)C(=O)[C@@H]4C3)cc(-c3ccccc3)nc2c1 | 31 | > 10 | 
3 | COc1ccc2c(O[C@H]3C[C@H]4C(=O)NCCCC/C=C\[C@@H]5C[C@@]5(C(=O)O)NC(=O)[C@@H]4C3)cc(-c3ccccc3)nc2c1 | 260 | > 10 | 
4 | COc1cc(O[C@@H]2C[C@H]3C(=O)N[C@]4(C(=O)NS(=O)(=O)C5CC5)C[C@H]4/C=C\CCCCN(C)C(=O)N3C2)nc(-c2ccccc2)n1 |  | 84 | 
5 | COc1ccc2c(O[C@@H]3C[C@H]4C(=O)N[C@]5(C(=O)O)C[C@H]5/C=C/CCCCC[C@H](NC(=O)OC5CCCC5)C(=O)N4C3)cc(-c3csc(NC(C)C)n3)nc2c1 [listing 1 of 2 here] |  |  | FC [3]: 2
6 | COc1ccc2c(O[C@@H]3C[C@H]4C(=O)N[C@]5(C(=O)O)C[C@H]5/C=C\CCCCCN(C(=O)OC(C)(C)C)C(=O)[C@@H]4C3)cc(-c3ccccc3)nc2c1 | 710 | > 10 | 
7 | COc1ccc2c(O[C@@H]3C[C@H]4C(=O)N[C@]5(C(=O)NS(=O)(=O)C6CC6)C[C@H]5/C=C\CCCCN(C)C(=O)N4C3)nc(-c3ccccc3)nc2c1C | 0.2 | 11 | Papp A→B [4]: 26 ×10⁻⁶ cm/s; microsomal CLint [5]: 17 µL/min/mg; Vd [6]: 1.1 L/kg
8 | COc1ccc2c(O[C@@H]3C[C@H]4C(=O)N[C@]5(C(=O)O)C[C@H]5/C=C\CCCN(C(=O)OC(C)(C)C)C(=O)[C@@H]4C3)cc(-c3ccccc3)nc2c1 | 130 | > 10 | 
9 | COc1ccc(-c2nc(O[C@@H]3C[C@H]4C(=O)N[C@]5(C(=O)NS(=O)(=O)C6CC6)C[C@H]5/C=C\CCCCN(C)C(=O)N4C3)c3ccc(OC)c(C)c3n2)cc1 | 0.6 | 3 | Papp A→B [4]: 33 ×10⁻⁶ cm/s; microsomal CLint [5]: 8 µL/min/mg
10 | COc1ccc2c(O[C@@H]3C[C@H]4C(=O)N[C@]5(C(=O)NS(=O)(=O)C6CC6)C[C@H]5/C=C\CCCCN(C)C(=O)[C@@H]4C3)cc(-c3nc(C(C)C)cs3)nc2c1C [SIMEPREVIR] | 0.36 | 7.8 | EC90 [2]: 19 nM; Ki [7]: 1.4 nM; FC [8]: 3.9; GI50 [9]: ≥ 10000 nM; CC50 at 72 h [10]: ≥ 10000 nM; fraction unbound [11]: < 0.01
11 | COc1ccc2c(O[C@@H]3C[C@H]4C(=O)N[C@]5(C(=O)O)C[C@H]5/C=C\CCCCN(C)C(=O)[C@@H]4C3)cc(-c3ccccc3)nc2c1 | 44 | 2.2 | 
12 | COc1ccc2c(O[C@@H]3C[C@H]4C(=O)N[C@]5(C(=O)NS(=O)(=O)C6CC6)C[C@H]5/C=C\CCCCN(NC(=O)OC(C)(C)C)C(=O)[C@@H]4C3)cc(-c3ccccc3)nc2c1 | 0.07 | 0.53 | 
13 | C=C[C@@H]1C[C@]1(NC(=O)[C@@H]1C[C@@H](Oc2cc(-c3ccccc3)nc3cc(OC)ccc23)C[C@H]1C(=O)N[C@H](C(=O)N[C@H](C(=O)NC)C1CCCCC1)C(C)(C)C)C(=O)O | 22 |  | 
14 | COc1ccc2c(O[C@@H]3C[C@H]4C(=O)N[C@]5(C(=O)NS(=O)(=O)C6CC6)C[C@H]5/C=C\COCCN(C)C(=O)[C@@H]4C3)cc(-c3ccccc3)nc2c1 |  | 320 | 
15 | COc1ccc2c(O[C@@H]3C[C@H]4C(=O)N[C@]5(C(=O)NS(=O)(=O)C6(C)CC6)C[C@H]5/C=C\CCCCCNC(=O)N4C3)cc(-c3nc(C(C)C)cs3)nc2c1 |  |  | Kp at 6 h [12]: 100; half-life [13]: 3 h; Tmax [14]: 0.75 h; AUC [15]: 6 µM·h; Kp at 6 h [16]: 550; metabolised at 0.25 h, 5 µM [17]: 89%; Vd [6]: 1 L/kg
16 | COc1ccc2c(O[C@@H]3C[C@H]4C(=O)N[C@]5(C(=O)O)C[C@H]5/C=C\CCCCN(N)C(=O)[C@@H]4C3)cc(-c3ccccc3)nc2c1 | 6 | 7.6 | 
17 | COc1ccc2c(O[C@@H]3C[C@H]4C(=O)N[C@]5(C(=O)O)C[C@H]5/C=C/CCCCC[C@H](NC(=O)OC5CCCC5)C(=O)N4C3)cc(-c3csc(NC(C)C)n3)nc2c1 [listing 2 of 2 here] |  | 1.63 | metabolised at 0.25 h, 5 µM [17]: 2.5%; EC50 [18]: 4 nM; Ki [7]: 0.66 nM
18 | C=C[C@@H]1C[C@]1(NC(=O)[C@@H]1C[C@@H](Oc2cc(-c3ccccc3)nc3cc(OC)ccc23)C=C1C(=O)N[C@H](C(=O)N[C@H](C(=O)NC)C1CCCCC1)C(C)(C)C)C(=O)O | 1.3 |  | 
19 | CCc1cnc(-c2ccc(C)cc2NC(=O)O[C@@H]2C[C@H]3C(=O)N[C@]4(C(=O)NS(=O)(=O)C5CC5)C[C@H]4/C=C\CCCCN(C)C(=O)[C@@H]3C2)s1 | 0.2 | 3.2 | Papp A→B [4]: 15 ×10⁻⁶ cm/s; microsomal CLint [5]: < 6 µL/min/mg
20 | COc1ccc2c(O[C@@H]3C[C@H]4C(=O)N[C@]5(C(=O)NS(=O)(=O)C6CC6)C[C@H]5/C=C\CCCCN(N)C(=O)[C@@H]4C3)cc(-c3ccccc3)nc2c1 | 0.19 | 0.033 | 
21 | CCOc1cc(O[C@@H]2C[C@H]3C(=O)N[C@]4(C(=O)NS(=O)(=O)C5CC5)C[C@H]4/C=C\CCCCN(C)C(=O)[C@@H]3C2)c2ccc(OC)c(C)c2n1 |  | 4.3 | 
22 | COc1ccc2c(O[C@@H]3C[C@H]4C(=O)N[C@]5(C(=O)NS(=O)(=O)C6(C)CC6)C[C@H]5/C=C\CCCCCC(=O)N4C3)cc(-c3nc(C(C)C)cs3)nc2c1C | 0.2 | 3.8 | bioavailability [19]: 31%; half-life [13]: 2.7 h; Tmax [14]: 0.75 h; Cmax [20]: 930 nM; Papp A→B [4]: 11.1 ×10⁻⁶ cm/s; clearance [21]: 15.7 mL/min/kg; Vd [6]: 0.56 L/kg
23 | COc1ccc2c(O[C@@H]3C[C@H]4C(=O)N[C@]5(C(=O)NS(=O)(=O)C6CC6)C[C@H]5/C=C\CCCCN(C)C(=O)[C@@H]4C3)cc(-c3ccccc3)nc2c1 |  |  | remaining at 1 h [22]: 95%; clearance [23]: 46.5 mL/min/kg; bioavailability [24]: 2.5%
24 | COc1ccc2c(O[C@H]3C=C4C(=O)N(N)CCCC/C=C\[C@@H]5C[C@@]5(C(=O)O)NC(=O)C4C3)cc(-c3ccccc3)nc2c1 (stereo partly specified) | 15 | 5.4 | 
25 | COc1ccc2c(O[C@H]3C[C@H]4C(=O)NCCCC/C=C\[C@@H]5C[C@@]5(C(=O)NS(=O)(=O)C5CC5)NC(=O)[C@@H]4C3)cc(-c3ccccc3)nc2c1 | 2.2 | 4.4 | 
